Counter-ions that a name gives are not always drawn.

For one series, the target named is T1, human PDE IVA (Homo sapiens, UniProt P27815).
T1 construct: made in house; host or cells: yeast (inducible vector)
The series is described as follows: Isolated recombinant human PDE IVA enzyme, phosphodiesterase activity. The format is biochemical. As to conditions: 0.1 μM [3H]-cAMP, pH 7.5, 30° C. The text has this:
A gene encoding human PDE IV has been cloned from human monocytes (Livi, et al., 1990, Molecular and Cellular Biology, 10, 2678). Using similar procedures we have cloned human PDE IV genes from a number of sources including eosinophils, neutrophils, lymphocytes, monocytes, brain and neuronal tissues. These genes have been transfected into yeast using an inducible vector and various recombinant proteins have been expressed which have the biochemical characteristics of PDE IV (Beavo and Reifsnyder, 1990, TIPS, 11, 150). These recombinant enzymes, particularly the human eosinophil recombinant PDE IVA, have been used as the basis of a screen for potent, selective PDE IV inhibitors.
The enzymes were purified to isoenzyme homogeneity using standard chromatographic techniques.
Phosphodiesterase activity was assayed as follows. The reaction was conducted in 150 μl of standard mixture containing (final concentrations): 50 mM 2-[[tris(hydroxymethyl)methyl]amino]-1-ethanesulphonic acid (TES) --NaOH buffer (pH 7.5), 10 mM MgCl2, 0.1 μM [^3 H]-cAMP and vehicle or various concentrations of the test compounds. The reaction was initiated by addition of enzyme and conducted at 30° C. for between 5 to 30 min. The reaction was terminated by addition of 50 μl 2% trifluoroacetic acid containing [^14 C]-5'AMP for determining recovery of the product. An aliquot of the sample was then applied to a column of neutral alumina and the [^3 H]-cAMP eluted with 10 ml 0.1 TES-NaOH buffer (pH8). The [^3 H]-5'-AMP product was eluted with 2 ml 2M NaOH into a scintillation vial containing 10 ml of scintillation cocktail. Recovery of [^3 H]-5'AMP was determined using the [^14 C]-5'AMP and all assays were conducted in the linear range of the reaction. Results were expressed as IC50 values.

The nature of series [1]: Rat hepatocyte metabolism. The format is in vitro ADME. As to conditions: rat hepatocytes, after 3 h; read-out: percentage of compound remaining. As for the experimental part: The quantity of compound remaining after a fixed period of time was then determined using mass spectroscopy.
Thus in one such test the compound of Example 1 was compared with a related compound particularly described in International Patent Specification No. WO94/14742 in which the phenylsulphonyl group in the compound of Example 1 is replaced by a hydrogen atom. After 3 h the percentage of each compound remaining was: […]

Series [2] can be described thus: Plasma levels after oral administration to squirrel monkeys. The format is in vivo. As to conditions: monkey, 10 mg/kg p.o., after 30 min, read-out: plasma level. As for the experimental part: The same two compounds were also administered orally to squirrel monkeys at 10 mg/kg p.o,. and the plasma levels of each determined. After 1 h the […] compound was present at 1 μg/ml whereas after 30 min the compound of Example 1 was present at 34 μg/ml, thus illustrating the good oral availability of the compound.

T1 sequence (P27815 whole entry): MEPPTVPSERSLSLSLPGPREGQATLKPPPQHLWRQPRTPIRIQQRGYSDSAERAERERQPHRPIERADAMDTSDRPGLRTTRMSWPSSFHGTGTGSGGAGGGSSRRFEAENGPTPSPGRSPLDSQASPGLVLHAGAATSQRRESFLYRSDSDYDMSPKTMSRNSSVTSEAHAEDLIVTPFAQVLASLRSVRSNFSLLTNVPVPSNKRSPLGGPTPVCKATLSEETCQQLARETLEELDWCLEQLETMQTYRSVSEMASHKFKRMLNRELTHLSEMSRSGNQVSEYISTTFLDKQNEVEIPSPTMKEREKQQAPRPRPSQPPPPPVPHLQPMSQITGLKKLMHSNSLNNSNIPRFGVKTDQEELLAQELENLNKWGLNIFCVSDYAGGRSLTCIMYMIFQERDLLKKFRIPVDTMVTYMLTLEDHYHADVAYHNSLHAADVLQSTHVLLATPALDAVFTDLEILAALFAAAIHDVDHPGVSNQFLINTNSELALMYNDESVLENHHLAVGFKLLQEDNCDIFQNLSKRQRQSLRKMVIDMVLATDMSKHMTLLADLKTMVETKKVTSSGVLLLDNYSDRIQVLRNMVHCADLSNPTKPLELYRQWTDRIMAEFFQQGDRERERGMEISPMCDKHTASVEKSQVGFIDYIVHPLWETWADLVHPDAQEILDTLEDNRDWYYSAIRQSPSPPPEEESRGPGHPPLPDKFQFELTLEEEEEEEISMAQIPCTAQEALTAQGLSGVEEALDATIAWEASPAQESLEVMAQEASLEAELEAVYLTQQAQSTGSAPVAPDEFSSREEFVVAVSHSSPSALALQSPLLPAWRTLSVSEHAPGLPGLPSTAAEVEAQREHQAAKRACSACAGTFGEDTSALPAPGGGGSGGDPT

Broadly, the IC50 is the concentration that inhibits the measured activity by half. The share remaining is the share of the starting amount still present when the sample was taken. In the case of `COc1ccc([C@H](Cc2ccncc2)c2ccc(NC(=O)NS(=O)(=O)c3ccccc3)cc2)cc1OC1CCCC1` [Example 1, (R)-N-[4-{1-(3-Cyclopentyloxy-4-methoxyphenyl)-2-(4-pyridyl)ethyl}-phenyl]-N'-(phenylsulphonyl) urea, hydrochloride], on human PDE IVA, the IC50 turned out to be 4 nM. The fraction remaining at 3 h in series [1] is 56%. Also, the concentration at 0.5 h in series [2] is 34000 ng/mL.

`COc1ccc([C@H](Cc2ccncc2)c2ccc(NC(=O)NS(=O)(=O)c3ccc(C)cc3)cc2)cc1OC1CCCC1` [Example 2, (R)-N-[4-{1-(3-Cyclopentyloxy-4-methoxyphenyl)-2-(4-pyridyl)ethyl}-phenyl]-N'-(methylphenylsulphonyl) urea, hydrochloride]: the IC50 on human PDE IVA was determined as 13.9 nM. For `COc1ccc([C@H](Cc2ccncc2)c2ccc(NC(=O)NS(=O)(=O)c3ccc(Cl)cc3)cc2)cc1OC1CCCC1` [Example 3, (R)-N-[4-{1-(3-Cyclopentyloxy-4-methoxyphenyl)-2-(4-pyridyl)ethyl}-phenyl]-N'-(4-chlorophenylsulphonyl) urea, hydrochloride], on human PDE IVA, the IC50 came out at 17.6 nM.

The values above are taken from patent US5849770A, “Tri-substituted phenyl derivatives useful as PDE IV inhibitors” (Celltech Therapeutics Ltd., priority 1995, dated 1998).
